Laboratory results taken from patent US8076514B2, “Phenyl compounds and their use in the treatment of Type II diabetes” (Eli Lilly and Company, priority 2005, dated 2011).
Structures can show the parent of a compound that is named as a salt.

Target: T1, human recombinant DPIV enzyme (Homo sapiens, UniProt P27487)
T1 construct: Secreted DPIV (lacking membrane anchor) is enriched from HEK293 cell culture supernatant; made in house; host or cells: HEK293
Assay: Human Recombinant DPIV Activity Assay (fluorometric end point, Gly-Pro-AMC substrate)
Assay type: biochemical
Details: enriched human recombinant DPIV, Gly-Pro-AMC 0.02 mM, 12 points concentration response curve
Method: Human Recombinant DPIV Activity Assay The DPIV assay uses a fluorometric end point assay (excitation 355 nm; emission 460 nm), enriched human recombinant DPIV enzyme (21.3 μU/μl), and Gly-Pro-AMC (Bachem I-1225) as substrate (0.02 mM). Secreted DPIV (lacking membrane anchor) is enriched from HEK293 cell culture supernatant by ultrafiltration, ultra-centrifugation, and size-exclusion chromatography. IC50 values of the compounds are calculated based on a 12 points concentration response curve. Each concentration is measured in duplicate. The assay is validated by plate variability and conformity, inter-plate variability, signal window, and minimum significant ration of IC50. A MSR is calculated based on a test/retest analysis and a retrospective analysis. The MSR value is 1.8.

T1 sequence (P27487 29-766 limits assumed): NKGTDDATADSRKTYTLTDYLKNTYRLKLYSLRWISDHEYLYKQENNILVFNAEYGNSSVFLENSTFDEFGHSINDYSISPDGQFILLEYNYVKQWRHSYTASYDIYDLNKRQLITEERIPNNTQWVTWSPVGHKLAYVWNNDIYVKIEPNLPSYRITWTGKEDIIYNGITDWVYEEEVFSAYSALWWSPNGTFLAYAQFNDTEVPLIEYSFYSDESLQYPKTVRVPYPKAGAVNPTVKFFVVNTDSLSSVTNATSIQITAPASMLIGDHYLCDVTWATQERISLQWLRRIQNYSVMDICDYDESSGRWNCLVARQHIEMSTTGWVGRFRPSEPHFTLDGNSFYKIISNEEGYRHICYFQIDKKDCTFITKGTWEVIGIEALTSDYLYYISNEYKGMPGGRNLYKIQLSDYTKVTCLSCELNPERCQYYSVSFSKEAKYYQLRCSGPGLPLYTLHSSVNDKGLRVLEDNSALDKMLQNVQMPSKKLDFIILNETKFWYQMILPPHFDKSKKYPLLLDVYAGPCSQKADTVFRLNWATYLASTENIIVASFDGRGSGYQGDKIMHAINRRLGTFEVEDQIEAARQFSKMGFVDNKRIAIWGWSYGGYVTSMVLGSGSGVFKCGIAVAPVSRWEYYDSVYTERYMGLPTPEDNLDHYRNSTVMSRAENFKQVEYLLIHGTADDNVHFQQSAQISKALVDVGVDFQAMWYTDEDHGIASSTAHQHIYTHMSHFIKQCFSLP

## COc1ccc(C(=O)NC(C)(C)C)c(C[C@H](O)[C@H](N)Cc2ccccc2F)c1 [Example 6, 2-[(2S,3R)-3-Amino-4-(2-fluoro-phenyl)-2-hydroxy-butyl]-N-tert-butyl-4-methoxy-benzamide Hydrochloride]
  IC50: 98 nM

## CC(C)(C)NC(=O)c1cc(Cl)ccc1C[C@H](O)[C@H](N)Cc1ccccc1F [Example 7, 2-[(2S,3R)-3-Amino-4-(2-fluoro-phenyl)-2-hydroxy-butyl]-N-tert-butyl-5-chloro-benzamide Hydrochloride]
  IC50: 134 nM
